Holding throughout (format): physicochemical
Data set [1] can be described thus: Melting and cooling of Pattern 1 (DSC A experiment; melting and rapid cooling), degradation by 1H NMR/UPLC. How it is done: A portion of ED01748-006-001-00 was heated in a differential scanning calorimeter at 10° C./min to 110° C., and then cooled to 30° C. at 50° C./min. The contents of a DSC pan were analyzed by ^1H NMR.
Each (about 10 mg) of two ED01748-006-001-00 samples was put into a vial, and then into a drying pistol which had been preheated to 110° C. for 10 minutes under ambient pressure. The molten sample was removed, followed by rapid cooling with dry ice. The glass material from the first sample was rapidly crystallized by impacting a part that characterized it. As a result of XRPD analysis, the glass material was identified as Pattern 1 (FIG. 7).

Data set [2] can be described thus: Gravimetric vapor sorption (GVS). How it is done: Sorption isotherms were obtained using an SMS DVS intrinsic water absorption analyzer controlled by SMS Analysis Suite software. A sample temperature was maintained at 25° C. throughout. Humidity was controlled by a mixed stream of dry and wet nitrogen with a total flow rate of 200 mL/min. The relative humidity was measured with a calibrated Rotronic probe (dynamic range: 1.0-100% RH) located near the sample. The weight change (mass relaxation) of the sample as a function of % RH was continuously monitored using a microbalance (accuracy±0.005 mg). 5 to 20 mg of the sample was stored in a prepared stainless steel mesh basket under atmospheric conditions.

The nature of data set [3]: Thermodynamic solubility by UPLC in biological media (FaSSGF, FaSSIF). The note with it: thermodynamic from solid, 37° C., 24 h orbital shaker, all solids dissolved. How it is done: A thermodynamic solubility in water was determined by providing a suitable concentration of compound prepared by suspending a sufficient compound in water or buffer according to estimated solubilities of the medium and the compound. Quantification was done by UPLC with reference to a standard calibration curve. A solubility was calculated with QuanLynx using a peak area determined by the integration of a peak found at the same retention time as the main peak in the standard injection.
To measure the solubility of ED01748-006-001-00 Pattern 1, experiments were carried out in biological media (Fasted simulated gastric fluid (FaSSGF) and Fasted simulated intestinal fluid (FaSSIF)) at 37° C. […] each of samples was dispersed into each of four vials, 1 mL each of FaSSGF and FaSSIF was added to each of the two vials and incubated in an orbital shaker for 24 hours. After incubation, all solids in each sample were dissolved, and the solubility was measured as follows.

Data set [4] is described as follows: Competitive slurry experiment for Pattern 1, Pattern 3, Pattern 6 and Pattern 11. The method, then:
A mixture of Pattern 1 and Pattern 3 (ED01748-028-003-00, 10 mg each) was dispensed into four vials, and Pattern 6 (ED01748-034-002-00, 5 mg) and Pattern 11 (ED01748-037-002-00, 5 mg) were added to respective vials. Each sample was treated with 300 μL of a filtered saturated solution of Pattern 1 (ED01748-006-001-00) prepared in DIPE or heptane. The resulting slurries were stirred at room temperature and 50° C. A small sample was periodically removed and analyzed by)(RFD, followed by monitoring as described in the following table.
After analysis, the solid was returned to the vial, and a saturated solution was additionally injected as needed to maintain the slurries. After 25 days, the purity of the solid material obtained in the heptane experiment was confirmed by UPLC, and no significant decrease in purity was shown by UPLC.

The nature of data set [5]: Storage under stress humidity (40° C./75% RH or RT/97% RH, 7 days) with XRPD, UPLC, 1H NMR.
Data set [6] in a line: Log D (shake flask at pH 5) and Log P.
Data set [7] is described as follows: Competitive slurry experiment for Pattern 1 and Pattern 3. As to conditions: competitive slurries in DIPE and heptane, room temperature and 50° C. How it is done: To investigate the relative thermodynamic stability of various crystalline form patterns at room temperature and 50° C., competitive slurry experiments were carried out.
A mixture of Pattern 1 and Pattern 3 (ED01748-028-003-00, 4×20 mg) was dispensed into vials. They were treated with 250 μL of a saturated solution of Pattern 1 (ED01748-006-001-00) in DIPE or heptane (50 mg of ED01748-006-001-00 was treated with DIPE or heptane and heated at 50° C., a portion was removed as needed, and the resulting product was filtered through a 0.45 μm syringe filter, thereby forming a slurry). The produced slurry was stirred at room temperature or 50° C. After analysis, the solid was returned to the vial, and an additional saturated solution was added as needed to maintain the slurry. After 4 days, the purity of the material was confirmed by UPLC.

Setting [8] is: 110° C. for 10 minutes, rapid cooling with dry ice.

The structures appear in SMILES notation. Values after ≈ are worked out from the molar mass of the structure shown. “Also recorded” adds a separate entry of the source. Read-outs that look alike come from different tables or passages of the source.

On to `C[C@H](OC(N)=O)[C@@H](O)c1ccccc1Cl` [ED01748-006-001-00, 1-(2-chlorophenyl)-(S)-1-hydroxypropyl-(S)-2-carbamate], for which the “Decomposition after melting and rapid cooling (1H NMR or UPLC)” value in data set [1] (setting [8]) is “not significantly decomposed”. The “UPLC purity after melting and rapid cooling” value in data set [1] (setting [8]) is 98.7%. Moreover, the “Degradation after melting and cooling (1H NMR)” value in data set [1] (heated 10° C./min to 110° C., cooled to 30° C. at 50° C./min) was “no degradation or migration”. Besides, the “XRPD post GVS (change in form)” value in data set [2] (after GVS experiment) is “no change in morphology; also recorded: Shows no change in form by XRPD post GVS”. The compound further registered a GVS mass increase in data set [2] (second sorption cycle, 0-90% RH, 25° C., listed as Pattern 1) of 0.14%. Also, the solubility at 24 h in data set [3] (fasted simulated gastric fluid (FaSSGF), fassgf or other biorelevant, fasted simulated gastric fluid, read-out: FaSSGF solubility after 24 h) was 16.8 mg/mL (≈ 73.3 mM); in data set [3] (fasted simulated intestinal fluid (FaSSIF), fassif, fasted simulated intestinal fluid, read-out: FaSSIF solubility after 24 h), 14.1 mg/mL (≈ 61.2 mM). For the same compound, the Relative thermodynamic stability result in data set [4] (conclusion including heptane slurries, room temperature and 50° C., 25 days) is “more thermodynamically stable than Pattern 11 and Pattern 6”; in data set [4] (in DIPE at room temperature and 50° C., after 1 day), “more thermodynamically stable than Pattern 3, Pattern 6 and Pattern 11”; in data set [7], “more thermodynamically stable than Pattern 3”. In data set [5] (40° C./75% RH), the “1H NMR post storage at 40° C./75% RH for 7 days” value was “Consistent with structure”. For the same compound, the “XRPD post storage at 40° C./75% RH for 7 days (change in form)” value in data set [5] (40° C./75% RH) is reported as “no change in morphology; also recorded: Shows no change in form by XRPD post storage”; in data set [5] (40° C./75% RH, listed as Pattern 1), “no morphological change”. In addition, the “UPLC purity post storage at 40° C./75% RH for 7 days” value in data set [5] (40° C./75% RH, initial UPLC purity 98.6%) came to 97.4%. Besides, the “1H NMR purity post storage at RT/97% RH for 7 days” value in data set [5] (RT/97% RH) was “Consistent with structure”. The “XRPD post storage at RT/97% RH for 7 days (change in form)” value in data set [5] (RT/97% RH) is “no change in morphology; also recorded: Shows no change in form by XRPD post storage”; in data set [5] (RT/97% RH, listed as Pattern 1), “no morphological change”. In addition, the “UPLC purity post storage at RT/97% RH for 7 days” value in data set [5] (RT/97% RH, initial UPLC purity 98.6%) is 97.7%. The logP in data set [6] was determined as 1.32. Further, the logD in data set [6] (shake flask) is 1.32.

These data come from US12054449B2, “Phenylcarbamate crystalline form and method for manufacturing the same” (BIO-PHARM SOLUTIONS CO., LTD., priority 2021, dated 2024).
